Experimental data reported in patent publication US5229412A, “Method for relieving anxiety using 5-hydroxytryptamine-1A-receptor-binding compounds” (The Board of Trustees of the Leland Stanford Junior …, priority 1988, dated 1993).

Tests used:
5-HT1A receptors = conditions: background statement; cited from earlier work
β-adrenergic receptors = test: Radioligand binding, β-adrenergic receptors labeled by ^3 H-dihydroalprenolol (^3 H-DHA), rat cortex; conditions: for IC50: mean ± standard error of 3-4 experiments, read-out: Drug Potency (IC50) β-adrenergic (^3 H-DHA); for potency at β-adrenergic receptors relative to 5-HT1A (in words): labeled by ^3 H-DHA
Method: (§1) Radioligand binding studies were performed described in Peroutka et al., Molecular Pharmacology (1979) 16:687-699. Briefly, rat brain were purchased from Pel-Freez (Roger, AR). On the day of study, the samples were thawed in Tris-HCl buffer. Tissues were homogenized in 20 volumes Tris-HCl buffer (pH 7.7 at 25° C.) using a Brinkmann Polytron and then centrifuged in an IEC B20A centrifuge at 49,000×g for 10 min. The supernatant was discarded, and the pellet was resuspended in the same volume of Tris-HCl buffer and incubated at 37° C. for 10 min prior to a second centrifugation at 49,000×g for 10 min. The final pellet was resuspended in 80 volumes of Tris-HCl buffer containing 10 μM pargyline, 4 mM calcium chloride and 0.1% ascorbic acid. The suspensions were immediately used in the binding assay. […] Following incubation at 25° C. for 30 minutes, the assays were rapidly filtered under vacuum through #32 glass filters (Schleicher and Scheull: Keene, NH) with two 5 ml washes using 50 mM Tris-HCl buffer. Radioactivity was measured by liquid scintillation spectroscopy in ml of 3a70 Counting Cocktail (Research Products International: Mt. Prospect, IL) at 54% efficiency. […] All drugs were diluted and dissolved in assay buffer.
(§2) Each experiment was performed in triplicate and repeated 3 to 6 times.

5-HT2 = target: T1, 5-HT2 (Rattus norvegicus, UniProt P14842); test: Radioligand binding, 5-HT2 sites labeled by ^3 H-spiperone, rat cortex; conditions: for IC50: mean ± standard error of 3-4 experiments
T1 construct: rat brain were purchased from Pel-Freez; tissue Pel-Freez (Roger, AR); host or cells: rat brain (cortex) membranes
Method: as §1, §2

5-HT1A = target: T2, 5-HT1A (Rattus norvegicus, UniProt P19327); test: Radioligand binding, 5-HT1A sites labeled by ^3 H-8-OH-DPAT, rat cortex; conditions: for IC50: mean ± standard error of 3-4 experiments
T2 construct: rat brain were purchased from Pel-Freez; tissue Pel-Freez (Roger, AR); host or cells: rat brain (cortex) membranes
T2 sequence (P19327 1-422): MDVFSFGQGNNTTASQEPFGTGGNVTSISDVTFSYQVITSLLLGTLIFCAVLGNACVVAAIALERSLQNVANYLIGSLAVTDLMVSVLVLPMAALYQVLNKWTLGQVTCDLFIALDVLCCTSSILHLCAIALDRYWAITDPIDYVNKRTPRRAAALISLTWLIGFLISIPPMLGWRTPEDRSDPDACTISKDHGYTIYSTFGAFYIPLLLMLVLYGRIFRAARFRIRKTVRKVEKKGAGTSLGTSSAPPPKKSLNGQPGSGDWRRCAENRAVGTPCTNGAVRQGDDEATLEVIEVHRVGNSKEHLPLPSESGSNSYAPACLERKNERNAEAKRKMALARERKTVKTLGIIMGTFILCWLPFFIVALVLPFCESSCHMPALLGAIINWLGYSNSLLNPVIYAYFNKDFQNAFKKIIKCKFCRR
Method: as §1, §2

[1] = Stability of Compounds 8-11 on storage; assay type: physicochemical; conditions: methanol; 10 mg/ml, 20° C., 'too months'; read-out: decomposition in methanolic solution
Method: Methanolic solutions (10 mg/ml) are suitable storage forms.

non-5-HT1A = test: Radioligand binding, non-5-HT1A sites labeled by ^3 H-5-HT + 100 nM 8-OH-DPAT, rat cortex; conditions: for potency at non-5-HT1A binding sites (in words) / IC50: rat cortex; for IC50: read-out: Drug Potency (IC50) non-5-HT1A (^3 H-5-HT + 100 nM 8-OH-DPAT), mean ± standard error of 3-4 experiments
Method: as §1, with “Briefly,” for “Radioligand binding studies were performed described in Peroutka et al., Molecular Pharmacology (1979) 16:687-699. Briefly,”, “buffer.” for “buffer. Radioactivity was measured by liquid scintillation spectroscopy in ml of 3a70 Counting Cocktail (Research Products International: Mt. Prospect, IL) at 54% efficiency.”
as §2

T1 sequence (P14842 whole entry): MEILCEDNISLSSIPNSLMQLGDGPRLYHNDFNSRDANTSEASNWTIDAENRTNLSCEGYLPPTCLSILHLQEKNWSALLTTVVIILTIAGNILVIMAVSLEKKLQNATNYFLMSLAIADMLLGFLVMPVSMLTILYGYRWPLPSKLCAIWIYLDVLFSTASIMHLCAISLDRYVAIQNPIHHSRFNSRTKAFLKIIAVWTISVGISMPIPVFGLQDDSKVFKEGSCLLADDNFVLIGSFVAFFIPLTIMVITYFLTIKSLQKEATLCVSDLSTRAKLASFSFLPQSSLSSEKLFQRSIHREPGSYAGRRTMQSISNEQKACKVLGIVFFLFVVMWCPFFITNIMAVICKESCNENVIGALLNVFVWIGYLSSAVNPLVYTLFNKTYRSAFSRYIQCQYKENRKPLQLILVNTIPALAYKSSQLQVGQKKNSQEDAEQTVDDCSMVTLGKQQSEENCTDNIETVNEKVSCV

SMILES | IC50 (β-adrenergic receptors) [nM] | potency at 5-HT2 binding sites (in words) (5-HT2) | IC50 (5-HT2) [µM] | potency at the 5-HT1A binding site (in words) (5-HT1A) | IC50 (5-HT1A) [nM] | degraded at 1460 h [1] [%] | potency at non-5-HT1A binding sites (in words) (non-5-HT1A) | IC50 (non-5-HT1A) [nM] | inhibition of [^3 H]-8-OH-DPAT binding to 5-HT1A receptors (in words) (5-HT1A receptors) | potency at β-adrenergic receptors relative to 5-HT1A (in words) (β-adrenergic receptors) | selectivity for β-adrenergic receptors (in words) (β-adrenergic receptors) | Kd (non-5-HT1A; used for Ki calculation) [nM]
CC(C)NC[C@H](O)COc1cccc2ccccc12 [(-)-propranolol] | – | – | – | – | – | – | – | – | potent inhibitors | – | – | –
O=C1CC2(CCCC2)CC(=O)N1CCCCN1CCN(c2ncccn2)CC1 [Buspirone] | – | – | – | – | – | – | – | – | potent inhibitors | – | – | –
CC(C)(NC(=O)CBr)[C@H]1CC[C@@](C)(NCC(O)COc2cccc3[nH]c(C#N)cc23)CC1 (some centres unmarked) [Compound 10, N^8-(Bromoacetyl)-N1-[3-[(2-cyano-4-indolyl)oxy]-2-hydroxYpropyl]-(Z)-1,8-diamino-p-menthane] | – | – | – | – | – | < 5 | – | – | – | – | – | –
COC(=O)/C=C/C(=O)NC(C)(C)[C@H]1CC[C@@](C)(NCC(O)COc2cccc3[nH]ccc23)CC1 (some centres unmarked) [Compound 12] | 2.8 ± 0.5 | least potent | 1.1 ± 0.5 | similar, though less potent, affinity | 31 ± 8 | – | least potent | 270 ± 50 | – | – | most selective for β-adrenergic receptors | –
CC(C)(NCC(O)COc1cccc2[nH]ccc12)[C@H]1CC[C@@](C)(NC(=O)C2=CC3C=CC2CC3)CC1 (some centres unmarked) [Compound 15] | 19 ± 9 | approximately less potent | – | extremely potent | 1.1 ± 0.1 | – | approximately less potent | 1300 ± 500 | – | approximately an order of magnitude less potent | – | –
O=C1c2ccccc2S(=O)(=O)N1CCCCN1CCN(c2ncccn2)CC1 [TVX Q 7821] | – | – | – | – | – | – | – | – | potent inhibitors | – | – | –
NCCc1c[nH]c2ccc(O)cc12 [^3 H-5-HT, 5-Hydroxytryptamine] | – | – | – | – | – | – | – | – | – | – | – | 3.2
CN1CCC(=C2c3ccccc3C=Cc3ccccc32)CC1 [cyproheptadine] | – | – | – | – | – | – | – | – | potent inhibitors | – | – | –
CN1CCC(=C2c3ccccc3CCc3sccc32)CC1 [pizotifen] | – | – | – | – | – | – | – | – | potent inhibitors | – | – | –

Continued, in another order:

IC50 (β-adrenergic receptors) [nM] | potency at 5-HT2 binding sites (in words) (5-HT2) | IC50 (5-HT2) [µM] | potency at the 5-HT1A binding site (in words) (5-HT1A) | IC50 (5-HT1A) [nM] | degraded at 1460 h [1] [%] | potency at non-5-HT1A binding sites (in words) (non-5-HT1A) | IC50 (non-5-HT1A) [nM] | SMILES | inhibition of [^3 H]-8-OH-DPAT binding to 5-HT1A receptors (in words) (5-HT1A receptors) | potency at β-adrenergic receptors relative to 5-HT1A (in words) (β-adrenergic receptors) | selectivity for β-adrenergic receptors (in words) (β-adrenergic receptors) | Kd (non-5-HT1A; used for Ki calculation) [nM]
1.3 ± 0.2 | least potent | 3.1 ± 1 | similar, though less potent, affinity | 6.3 ± 2 | < 5 | least potent | 140 ± 70 | CC(C)(NC(=O)CBr)[C@H]1CC[C@@](C)(NCC(O)COc2cccc3[nH]ccc23)CC1 (some centres unmarked) [Compound 8, N^8-(Bromoacetyl)-N^1-[3-(4-indolyloxy)-2-hydroxypropyl]-(Z)-1,8-diamino-p-menthane] | – | – | – | –
5.6 ± 0.5 | approximately less potent | 4 ± 0.5 | extremely potent | 0.71 ± 0.02 | < 5 | approximately less potent | 430 ± 200 | CC(C)(NCC(O)COc1cccc2[nH]ccc12)[C@H]1CC[C@@](C)(NC(=O)CBr)CC1 (some centres unmarked) [Compound 9, N^1 (Bromoacetyl)-N^8-[3-(4-indolyloxy)-2-hydroxypropyl]-(Z)-1,8-diamino-p-menthane] | – | approximately an order of magnitude less potent | – | –
1.1 ± 0.02 | least potent | 4.4 ± 2 | similar, though less potent, affinity | 5.3 ± 2 | < 5 | least potent | 410 ± 200 | CC(C)(NCC(O)COc1cccc2[nH]c(C#N)cc12)[C@H]1CC[C@@](C)(NC(=O)CBr)CC1 (some centres unmarked) [Compound 11] | – | – | – | –
10 ± 5 | approximately less potent | 3.6 ± 1 | extremely potent | 1.2 ± 0.2 | – | approximately less potent | 2900 ± 800 | COC(=O)/C=C/C(=O)N[C@]1(C)CC[C@H](C(C)(C)NCC(O)COc2cccc3[nH]ccc23)CC1 (some centres unmarked) [Compound 13] | – | approximately an order of magnitude less potent | – | –
4.2 ± 2 | least potent | – | similar, though less potent, affinity | 26 ± 8 | – | least potent | 46 ± 10 | CC(C)(NC(=O)C1=CC2C=CC1CC2)[C@H]1CC[C@@](C)(NCC(O)COc2cccc3[nH]ccc23)CC1 (some centres unmarked) [Compound 14] | – | – | most selective for β-adrenergic receptors | –
